This note sets out measurements from patent US11078193B2 (priority 2014, dated 2021).

Type in all cases: cell-based
The subject of data set [1] is HBV. The data set can be described thus: anti HBV activity, HepG2.117 inducibly HBV producing cell line (Tet-off), intracellular HBV DNA by realtime PCR. The settings on record: Hepatitis B virus, 72 h, HepG2.117 cells, 3 days of treatment.
A short description of data set [2]: Cytotoxicity, HepG2 cells, Resazurin assay. The settings on record: human. In general terms: The colour change of resazurin is a common sign of viable cells or microbes.
The test system of data set [3] is HBV. The data set can be described thus: anti-HBV activity, HepG2.2.15 stable transfected cell line, HBV DNA from secreted virions by realtime PCR. The settings on record: Hepatitis B virus, 144 h, HepG2.2.15 cells, 6 days of treatment.

As for `Cn1cc(S(=O)(=O)NC2(C)COC2)cc1C(=O)Nc1ccnc(C#N)c1` [Compound 1, N-(2-Cyanopyridin-4-yl)-1-methyl-4-[(3-methyloxetan-3-yl)sulfamoyl]-1H-pyrrole-2-carboxamide], the EC50 – broadly, the concentration that produces a half-maximal response – with HBV [1] turned out to be 650 nM; in the data set with HBV [3], 860 nM. Further, the CC50 (in general, the concentration at which the toxic effect on the cells reaches its halfway point) at 4 days in data set [2] is above 25000 nM.

`CC[C@@H](NS(=O)(=O)c1cn(C)c(C(=O)Nc2ccnc(C#N)c2)c1Cl)C(F)(F)F` [Compound 38, 3-chloro-N-(2-cyano-4-pyridyl)-1-methyl-4-[[(1R)-1-(trifluoromethyl)propyl]-sulfamoyl]pyrrole-2-carboxamide]: the EC50 came out at 50 nM in the data set on HBV [1] and 40 nM in the data set with HBV [3]. The molecule further returned a CC50 at 4 days in data set [2] above 25000 nM.

As to `C[C@H](NS(=O)(=O)c1cn(C)c(C(=O)Nc2ccnc(C#N)c2)c1F)C(F)(F)F` [Compound 19, N-(2-Cyanopyridin-4-yl)-3-fluoro-1-methyl-4-{[(1S)-2,2,2-trifluoro-1-methylethyl]sulfamoyl}-1H-pyrrole-2-carboxamide], the EC50 in the data set with HBV [1] is 100 nM; in the data set on HBV [3], 160 nM. The molecule also had a cytotoxic concentration (CC50) at 4 days in data set [2] above 25000 nM.

Take `C[C@@H](NS(=O)(=O)c1cn(C)c(C(=O)Nc2cccc(C#N)n2)c1Cl)C(F)(F)F` [Compound 22, 3-chloro-N-(6-cyano-2-pyridyl)-1-methyl-[[(1R)-2,2,2-trifluoro-1-methyl-ethyl]sulfamoyl]pyrrole-2-carboxamide]: the results for the EC50 in the data set with HBV [1] and in the data set with HBV [3] were 720 nM and 440 nM, respectively. This molecule showed a CC50 at 4 days in data set [2] above 25000 nM.

Take `C[C@@H](NS(=O)(=O)c1cn(C)c(C(=O)Nc2ccnc(Cl)c2F)c1F)C(C)(F)F` [Compound 125, N-(2-chloro-3-fluoro-4-pyridyl)-4-[[(1R)-2,2-difluoro-1-methyl-propyl]sulfamoyl]-3-fluoro-1-methyl-pyrrole-2-carboxamide]: the EC50 in the data set with HBV [1] was 8 nM; with HBV [3], below 100 nM. Besides, in data set [2], the CC50 at 4 days is above 25000 nM.

For the molecule `Cn1cc(S(=O)(=O)NC2(C)CC(F)(F)C2)c(Cl)c1C(=O)Nc1ccnc(Cl)c1` [Compound 65, 3-chloro-N-(2-chloro-4-pyridyl)-4-[(3,3-difluoro-1-methyl-cyclobutyl)-sulfamoyl]-1-methyl-pyrrole-2-carboxamide], the values for the EC50 with HBV [1] and in the data set with HBV [3] were 30 nM and 20 nM, respectively. The CC50 at 4 days in data set [2] was above 25000 nM.

With `CC[C@@H](NS(=O)(=O)c1cn(C)c(C(=O)Nc2ccnc(C(F)F)c2)c1Cl)C(F)(F)F` [Compound 85, 3-chloro-N-[2-(difluoromethyl)-4-pyridyl]-1-methyl-4-[[(1R)-1-(trifluoromethyl)propyl]sulfamoyl]pyrrole-2-carboxamide], the EC50 with HBV [1] came out at 40 nM; in the data set on HBV [3] it was 20 nM. In data set [2], this molecule gave a CC50 at 4 days of 24000 nM.

For the molecule `C[C@@H](NS(=O)(=O)c1cn(C)c(C(=O)Nc2ccnc(C(F)(F)F)c2)c1Cl)C(F)(F)F` [Compound 10, 3-Chloro-1-methyl-4-{[(1R)-2,2,2-trifluoro-1-methylethyl]sulfamoyl}-N-[2-(trifluoromethyl)pyridin-4-yl]-1H-pyrrole-2-carboxamide], the EC50 was 160 nM with HBV [1] and 70 nM in the data set on HBV [3]. The CC50 at 4 days in data set [2] was above 25000 nM.

Regarding `C[C@@H](NS(=O)(=O)c1cn(C)c(C(=O)Nc2ccnc(Cl)c2F)c1F)C(F)(F)F` [Compound 118, N-(2-chloro-3-fluoro-4-pyridyl)-3-fluoro-1-methyl-4-[[(1R)-2,2,2-trifluoro-1-methyl-ethyl]sulfamoyl]pyrrole-2-carboxamide], the EC50 in the data set with HBV [1] amounted to 10 nM; in the data set on HBV [3], 100 nM. Besides, the CC50 at 4 days in data set [2] was above 25000 nM.

For `C[C@@H](NS(=O)(=O)c1cn(C)c(C(=O)Nc2ccc(F)cn2)c1F)C(F)(F)F` [Compound 28, 3-fluoro-N-(5-fluoro-2-pyridyl)-1-methyl-4-[[(1R)-2,2,2-trifluoro-1-methyl-ethyl]sulfamoyl]pyrrole-2-carboxamide], the figures for the EC50 in the data set on HBV [1] and in the data set with HBV [3] were 700 nM and 360 nM, respectively. Besides, the CC50 at 4 days in data set [2] was above 25000 nM.

With `Cn1cc(S(=O)(=O)NC2(C(F)(F)F)CC2)c(Cl)c1C(=O)Nc1ccnc(C#N)c1` [Compound 39, 3-chloro-N-(2-cyano-4-pyridyl)-1-methyl-4-[[1-(trifluoromethyl)cyclopropyl]-sulfamoyl]pyrrole-2-carboxamide], the EC50 in the data set on HBV [1] and in the data set with HBV [3] was 90 nM in each case. This molecule also registered a CC50 at 4 days in data set [2] above 25000 nM.

As for `Cn1cc(S(=O)(=O)NC2(C)CC(F)(F)C2)c(Cl)c1C(=O)Nc1ccnc(C#N)c1` [Compound 64, 3-chloro-N-(2-cyano-4-pyridyl)-4-[(3,3-difluoro-1-methyl-cyclobutyl)-sulfamoyl]-1-methyl-pyrrole-2-carboxamide], the EC50 was determined as 30 nM with HBV [1] and 20 nM in the data set on HBV [3]. It took 23000 nM to reach half-maximal cytotoxicity in data set [2] (CC50 at 4 days).

Regarding `C[C@@H](NS(=O)(=O)c1cn(C)c(C(=O)Nc2cc(F)nc(F)c2)c1F)C(F)(F)F` [Compound 30, N-(2,6-difluoro-4-pyridyl)-3-fluoro-1-methyl-4-[[(1R)-2,2,2-trifluoro-1-methyl-ethyl]sulfamoyl]pyrrole-2-carboxamide], the EC50 was 10 nM with HBV [1] and below 100 nM with HBV [3]. The CC50 at 4 days in data set [2] was above 25000 nM.

Regarding `Cc1cc(NC(=O)c2cc(S(=O)(=O)NC3(C)COC3)cn2C)cnc1F` [Compound 3, N-(6-Fluoro-5-methylpyridin-3-yl)-1-methyl-4-[(3-methyloxetan-3-yl)sulfamoyl]-1H-pyrrole-2-carboxamide], the EC50 is 750 nM with HBV [1] and above 1000 nM in the data set on HBV [3]. For the same molecule, the CC50 at 4 days in data set [2] is above 25000 nM.

Turning to `C[C@@H](NS(=O)(=O)c1cn(C)c(C(=O)Nc2ccnc(C(C)(F)F)c2)c1F)C(F)(F)F` [Compound 129, N-[2-(1,1-difluoroethyl)-4-pyridyl]-3-fluoro-1-methyl-4-[[(1R)-2,2,2-trifluoro-1-methyl-ethyl]sulfamoyl]pyrrole-2-carboxamide], the 50% effective concentration (EC50) is 400 nM in the data set with HBV [1] and 810 nM in the data set with HBV [3]. Further, the half-maximal cytotoxic concentration (CC50) at 4 days in data set [2] was above 25000 nM.

Turning to `C[C@@H](NS(=O)(=O)c1cn(C)c(C(=O)Nc2cccc(C(F)(F)F)n2)c1F)C(F)(F)F` [Compound 26, 3-fluoro-1-methyl-4-[[(1R)-2,2,2-trifluoro-1-methyl-ethyl]sulfamoyl]-N-[6-(trifluoromethyl)-2-pyridyl]pyrrole-2-carboxamide], the EC50 in the data set on HBV [1] is above 1000 nM; in the data set with HBV [3], 110 nM. The CC50 at 4 days in data set [2] is above 25000 nM.

As to `CC[C@@H](NS(=O)(=O)c1cn(C)c(C(=O)Nc2ccnc(C(F)F)c2)c1F)C(F)(F)F` [Compound 87, N-[2-(difluoromethyl)-4-pyridyl]-3-fluoro-1-methyl-4-[[(1R)-1-(trifluoromethyl)propyl]sulfamoyl]pyrrole-2-carboxamide], the figures for the EC50 in the data set on HBV [1] and with HBV [3] were 30 nM and 20 nM, respectively. Moreover, in data set [2], the CC50 at 4 days is above 25000 nM.

Regarding `Cn1cc(S(=O)(=O)NC2(C(F)(F)F)CCC2)cc1C(=O)Nc1ccnc(C#N)c1` [Compound 42, N-(2-cyano-4-pyridyl)-1-methyl-4-[[1-(trifluoromethyl)cyclobutyl]-sulfamoyl]pyrrole-2-carboxamide], the EC50 with HBV [1] amounted to 80 nM; in the data set with HBV [3] it was 50 nM. Moreover, the CC50 at 4 days in data set [2] was above 25000 nM.

As for `Cn1cc(S(=O)(=O)NC2(C(F)(F)F)CC2)c(Cl)c1C(=O)Nc1ccnc(Cl)c1` [Compound 45, 3-chloro-N-(2-chloro-4-pyridyl)-1-methyl-4-[[1-(trifluoromethyl)cyclopropyl]-sulfamoyl]pyrrole-2-carboxamide], the values for the EC50 in the data set on HBV [1] and in the data set on HBV [3] were 40 nM and 50 nM, respectively. In data set [2], this molecule returned a CC50 at 4 days above 25000 nM.

For `Cn1cc(S(=O)(=O)NC2(C(F)(F)F)CCC2)cc1C(=O)Nc1ccnc(Cl)c1` [Compound 48, N-(2-chloro-4-pyridyl)-1-methyl-4-[[1-(trifluoromethyl)cyclobutyl]-sulfamoyl]pyrrole-2-carboxamide], the results for the concentration for a half-maximal effect (EC50) in the data set on HBV [1] and with HBV [3] were 40 nM and 60 nM, respectively. In data set [2], this molecule registered a CC50 at 4 days above 25000 nM.

With `Cc1cc(NC(=O)c2c(Cl)c(S(=O)(=O)N[C@H](C)C(F)(F)F)cn2C)cc(F)n1` [Compound 137, 3-chloro-N-(2-fluoro-6-methyl-4-pyridyl)-1-methyl-4-[[(1R)-2,2,2-trifluoro-1-methyl-ethyl]sulfamoyl]pyrrole-2-carboxamide], the EC50 was 20 nM in the data set with HBV [1] and below 100 nM with HBV [3]. In addition, the CC50 at 4 days in data set [2] was above 25000 nM.

Consider `Cn1cc(S(=O)(=O)NC(C)(C)C)c(Cl)c1C(=O)Nc1ccnc(C#N)c1` [Compound 6, 4-(tert-Butylsulfamoyl)-3-chloro-N-(2-cyanopyridin-4-yl)-1-methyl-1H-pyrrole-2-carboxamide], for which the EC50 in the data set with HBV [1] was 650 nM; in the data set with HBV [3], 590 nM. The molecule also came in with a CC50 at 4 days in data set [2] above 25000 nM.

Regarding `Cn1cc(S(=O)(=O)NC2(C)COC2)cc1C(=O)Nc1cncc(C(F)(F)F)c1` [Compound 2, 1-Methyl-4-[(3-methyloxetan-3-yl)sulfamoyl]-N-[5-(trifluoromethyl)pyridin-3-yl]-1H-pyrrole-2-carboxamide], the EC50 was 10400 nM in the data set with HBV [1] and above 1000 nM with HBV [3]. This molecule also returned a cytotoxic concentration (CC50) at 4 days in data set [2] above 25000 nM.

Consider `CC[C@@H](NS(=O)(=O)c1cn(C)c(C(=O)Nc2ccnc(C#N)c2)c1F)C(F)(F)F` [Compound 31, N-(2-cyano-4-pyridyl)-3-fluoro-1-methyl-4-[[(1R)-1-(trifluoromethyl)propyl]-sulfamoyl]pyrrole-2-carboxamide], for which the EC50 in the data set on HBV [1] amounted to 40 nM; in the data set with HBV [3], 30 nM. Also, the CC50 at 4 days in data set [2] is above 25000 nM.

Consider `C[C@@H](NS(=O)(=O)c1cn(C)c(C(=O)Nc2cc(Cl)nc(Cl)c2)c1F)C(F)(F)F` [Compound 126, N-(2,6-dichloro-4-pyridyl)-3-fluoro-1-methyl-4-[[(1R)-2,2,2-trifluoro-1-methyl-ethyl]sulfamoyl]pyrrole-2-carboxamide], for which the EC50 with HBV [1] and in the data set on HBV [3] was 20 nM each time. In addition, in data set [2], the CC50 at 4 days was above 25000 nM.
